# Laboratory results: patent publication US7332476B2, “Pyridyl substituted ketolide antibiotics” (Novartis AG, priority 2003, dated 2008)
# Key:
# Assay in all cases: MIC, broth microdilution (NCCLS)
# [1] = system: Streptococcus pneumoniae Stpn_Mef S 3427; format: cell-based; details: in µg/mL (unit assumed)
# In short: (§1)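 NCCLS broth microdilution with 2-fold serial drug dilutions (methanol stocks diluted in water); inoculum 3×10^5–7×10^5 CFU/ml in CAMHB, with 2-5% lysed horse blood for S. pneumoniae. Incubation 18-24 h at 35° C., ambient air, except S. pneumoniae (5-10% CO2). MIC is lowest concentration preventing visible growth.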
# [2] = system: Staphylococcus aureus Stau_29213; format: cell-based; details: in µg/mL (unit assumed)
# In short: as §1
# [3] = system: Staphylococcus epidermidis Step_f50654; format: cell-based; details: in µg/mL (unit assumed)
# In short: as §1
# [4] = system: Streptococcus pneumoniae Stpn_Erm S 4297; format: cell-based; details: Table 7, Strain ID J (Table 6): S. pneumoniae Stpn_Erm S 4297
# In short: as §1
# [5] = system: Haemophilus influenzae Hain_49247; format: cell-based; details: unit assumed
# [6] = system: Enterococcus faecalis Enfa_29212; format: cell-based; details: in µg/mL (unit assumed)
# In short: as §1
# [7] = system: Staphylococcus epidermidis Step_14990; format: cell-based; details: in µg/mL (unit assumed)
# In short: as §1
# [8] = system: Streptococcus pneumoniae Stpn_Mef 5654; format: cell-based; details: in µg/mL (unit assumed)
# Procedure: (§2) Strains. The bacterial isolates listed in Table 4 were cultivated from −70° C. frozen stocks by two consecutive overnight passages (P1, P2) at 35° C. on 5% blood agar (Remel, Lenexa, Kans.). Chocolate agar (Remel) is used for Haemophilus influenzae. H. influenzae and Streptococcus pneumoniae are incubated in 5-10% CO2
# (§3) Drug Stock Preparation. To determine the amount of solvent to be used to give the desired final concentration, the formula “weight obtained in mg/final concentration in mg/ml” will be used. It will give the amount of solvent in ml needed to be added to give the desired concentration. For example, if 2.5 mg/ml is the desired concentration and the weight of compound is 13.7 mg, then the amount of solvent to be added is […]. Methanol is used as the solvent to dissolve the test compounds. Further dilution of stock is done in sterile, deionized water. Drug stocks are kept frozen at −70° C., protected from light.
# (§4) Susceptibility Testing. MICs are determined by the broth microdilution method in accordance with the NCCLS guidelines. In brief, organism suspensions are adjusted to a 0.5 McFarland standard to yield a final inoculum between 3×10^5 and 7×10^5 CFU/ml. Drug dilutions and inocula are made in sterile, cation adjusted Mueller-Hinton Broth (CAMHB) (Remel) for all but S. pneumoniae [CAMHB with 2-5% lysed horse blood (Remel)] and H. influenzae [Haemophilus Test Medium (Remel)]. An inoculum volume of 100 μl is added to wells containing 100 μl of broth with 2-fold serial dilutions of drug. All inoculated microdilution trays are incubated in ambient air at 35° C. for 18-24 hours, except for S. pneumoniae, and H. influenzae (both at 5-10% CO2).
# Following appropriate incubation, the MIC is determined and the MIC is defined as the lowest concentration of the drug that prevented visible growth.
# as §2, with “8” for “4”
# (§5) Following appropriate incubation, the MIC is determined and the MIC is defined as the lowest concentration of the drug that prevented visible growth. […] Antibacterial activity of representative compounds of the invention were compared against telitromycin.
# [9] = system: Streptococcus pneumoniae Stpn_297-749; format: cell-based; design: MIC, strain ID N: unit not given here
# In short: as §1
# [10] = system: Streptococcus pneumoniae Stpn_280-962; format: cell-based; design: MIC, strain ID O: unit not given beside the values
# In short: as §1
# [11] = system: Streptococcus pyogenes Stpy_8668; format: cell-based; design: MIC, strain ID G: unit not given beside the values
# In short: as §1
# [12] = system: S. pneumoniae Stpn_Erm 6849; format: cell-based, Streptococcus pneumoniae; details: for MIC: Table 7, Strain ID I (Table 6): S. pneumoniae Stpn_Erm 6849, unit assumed
# In short: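 S. pneumoniae MIC by NCCLS broth microdilution in cation-adjusted Mueller-Hinton broth with 2-5% lysed horse blood, inoculum 3×10^5–7×10^5 CFU/ml, 2-fold drug dilutions. Incubated 18-24 hours at 35° C. in 5-10% CO2; MIC is lowest concentration preventing visible growth.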
# [13] = system: Streptococcus pneumoniae Stpn_49619; format: cell-based; design: MIC, strain ID M: unit not given beside the values
# In short: as §1
# [14] = system: Staphylococcus aureus Stau_33591; format: cell-based; details: unit assumed
# Procedure: as §2, with “8” for “4”
# as §3, §4, §5
# [15] = system: Haemophilus influenzae Hain_960730503-3; format: cell-based; details: Table 10, Strain ID I (Table 8): Haemophilus influenzae Hain_960730503-3; in µg/mL (unit assumed)
# Procedure: as §2, with “8” for “4”
# as §3, §4, §5
# [16] = system: Haemophilus influenzae Hain_960820544-3; format: cell-based; details: Table 10, Strain ID J (Table 8): Haemophilus influenzae Hain_960820544-3; in µg/mL (unit assumed)
# Procedure: as §2, with “8” for “4”
# as §3, §4, §5
# [17] = system: Haemophilus influenzae Hain_2762; format: cell-based; details: Table 10, Strain ID L (Table 8): Haemophilus influenzae Hain_2762; in µg/mL (unit assumed)
# Procedure: as §2, with “8” for “4”
# as §3, §4, §5
# [18] = system: Enterococcus faecalis Enfa_bc 11148-2; format: cell-based; details: Table 10, Strain ID F (Table 8): Enterococcus faecalis Enfa_bc 11148-2; in µg/mL (unit assumed)
# Procedure: as §2, with “8” for “4”
# as §3, §4, §5
# [19] = system: Haemophilus influenzae Hain_953460299-3; format: cell-based; details: Table 10, Strain ID K (Table 8): Haemophilus influenzae Hain_953460299-3; in µg/mL (unit assumed)
# Procedure: as §2, with “8” for “4”
# as §3, §4, §5
# [20] = Table 7, Strain ID L (Table 6): S. pneumoniae Stpn_Mef S 3427
# [21] = Table 7, Strain ID A (Table 6): S. aureus Stau_29213
# [22] = Table 7, Strain ID C (Table 6): S. epidermidis Step_f50654
# [23] = Table 7, Strain ID M (Table 6): H. influenzae Hain_49247
# [24] = Table 7, Strain ID D (Table 6): E. faecalis Enfa_29212
# [25] = Table 7, Strain ID B (Table 6): S. epidermidis Step_14990
# [26] = Table 7, Strain ID K (Table 6): S. pneumoniae Stpn_Mef 5654
# [27] = Table 7, Strain ID G (Table 6): S. pneumoniae Stpn_297-749
# [28] = Table 7, Strain ID H (Table 6): S. pneumoniae Stpn_280-962
# [29] = Table 7, Strain ID E (Table 6): S. pyogenes Stpy_8668
# [30] = Table 7, Strain ID F (Table 6): S. pneumoniae Stpn_49619
SMILES,"MIC [1, 20]","MIC [2, 21]","MIC [3, 22]",MIC [4],"MIC [5, 23]","MIC [6, 24]","MIC [7, 25]","MIC [8, 26]","MIC [9, 27]","MIC [10, 28]","MIC [11, 29]",MIC [12],"MIC [13, 30]",also measured
"CC[C@H]1OC(=O)[C@@](C)(F)C(=O)[C@H](C)[C@@H](OC2O[C@H](C)C[C@H](N(C)C)[C@H]2O)[C@@](C)(OC)C[C@@H](C)C(=O)[C@H](C)[C@H]2N(CCCC(C)(C)n3cnc4cccnc43)C(=O)O[C@]12CC (stereo partly drawn) [Example 40, (3aS,4R,7S,9R,10R,11S,13R,15R,15aR)-3a,4-diethyl-7-fluoro-1-[4-(3H-imidazo[4,5-b]pyridin-3-yl)-4-methylpentyl]-11-methoxy-7,9,11,13,15-pentamethyl-2,6,8,14-tetraoxotetradecahydro-2H-oxacyclotetradecino[4,3-d][1,3]oxazol-10-yl-3,4,6-trideoxy-3-(dimethylamino)-D-xylo-hexopyranoside]",0.2,0.2,0.2,=0.05,6.25 µg/mL,0.1,0.2,0.78,=0.05,=0.05,=0.05,0.2 µg/mL,=0.05,–
"C=C[C@]12OC(=O)N(CCCCn3cnc(-c4cccnc4)c3)[C@@H]1[C@@H](C)C(=O)[C@H](C)C[C@](C)(OC)[C@H](OC1O[C@H](C)C[C@H](N(C)C)[C@H]1O)[C@@H](C)C(=O)[C@@H](C)C(=O)O[C@@H]2CC (stereo partly drawn) [Example 48, (3aS,4R,7R,9R,10R,11R,13R,15R,15aR)-4-ETHYL-11-METHOXY-7,9,11,13,15-PENTAMETHYL-2,6,8,14-TETRAOXO-1-[4-(4-PYRIDIN-3-YL-1H-IMIDAZOL-1-YL)BUTYL]-3a-VINYLTETRADECAHYDRO-1H-OXACYCLOTETRADECINO[4,3-D][1,3]OXAZOL-10-YL-3,4,6-TRIDEOXY-3-(DIMETHYLAMINO)-D-XYLO-HEXOPYRANOSIDE]",0.1,0.2,0.2,=0.05,3.13 µg/mL,0.1,0.2,0.78,=0.05,=0.05,=0.05,0.4 µg/mL,=0.05,–
"C/C=C\[C@]12OC(=O)N(CCCCn3cnc(-c4cccnc4)c3)[C@@H]1[C@@H](C)C(=O)[C@H](C)C[C@](C)(OC)[C@H](OC1O[C@H](C)C[C@H](N(C)C)[C@H]1O)[C@@H](C)C(=O)[C@](C)(F)C(=O)O[C@@H]2CC (stereo partly drawn) [Example 66, (3aS,4R,7S,9R,10R,11S,13R,15R,15aR)-4-ethyl-7-fluoro-11-methoxy-7,9,11,13,15-pentamethyl-2,6,8,14-tetraoxo-3a-[(1Z)-prop-1-enyl]-1-[4-(4-pyridin-3-yl-1H-imidazol-1-yl)butyl]tetradecahydro-1H-oxacyclotetradecino[4,3-d][1,3]oxazol-10-yl-3,4,6-trideoxy-3-(dimethylamino)-D-xylo-hexopyranoside]",0.1,0.2,0.2,–,6.25 µg/mL,.01,0.2,0.4,=0.05,=0.05,=0.05,0.2 µg/mL,=0.05,MIC ([4]; unit assumed): 0.1 µg/mL
C=C[C@]12OC(=O)N(CCCCn3cnc(-c4ccc(N(C)C)nc4)c3)[C@@H]1[C@@H](C)C(=O)[C@H](C)C[C@](C)(OC)[C@H](OC1O[C@H](C)C[C@H](N(C)C)[C@H]1O)[C@@H](C)C(=O)[C@@H](C)C(=O)O[C@@H]2CC (stereo partly shown) [XXIV],–,–,–,–,–,–,–,–,–,–,–,–,–,"MIC ([1]; Table 10, Strain ID Q (Table 8): Streptococcus pneumoniae Stpn_Mef S 3427): 0.4; MIC ([2]; Table 10, Strain ID A (Table 8): Staphylococcus aureus Stau_29213): 0.2; MIC ([3]; Table 10, Strain ID D (Table 8): Staphylococcus epidermidis Step_f50654): 0.2; MIC ([5]; Table 10, Strain ID H (Table 8): Haemophilus influenzae Hain_49247): 12.5 µg/mL; MIC ([6]; Table 10, Strain ID E (Table 8): Enterococcus faecalis Enfa_29212): 0.1; MIC ([7]; Table 10, Strain ID C (Table 8): Staphylococcus epidermidis Step_14990): 0.2; MIC ([8]; Table 10, Strain ID P (Table 8): Streptococcus pneumoniae Stpn_Mef 5654): 1.56; MIC ([9]; Table 10, Strain ID N (Table 8): Streptococcus pneumoniae Stpn_297-749): =0.05; MIC ([10]; Table 10, Strain ID O (Table 8): Streptococcus pneumoniae Stpn_280-962): =0.05; MIC ([11]; Table 10, Strain ID G (Table 8): Streptococcus pyogenes Stpy_8668): =0.05; MIC ([14]; Table 10, Strain ID B (Table 8): Staphylococcus aureus Stau_33591): > 50 µg/mL; MIC [15]: 12.5; MIC [16]: 6.25; MIC [17]: 1.56; MIC [18]: 0.78; MIC [19]: 12.5; MIC ([13]; Table 10, Strain ID M (Table 8): Streptococcus pneumoniae Stpn_49619): =0.05"
C#C[C@]12OC(=O)N(CCCCn3cnc(-c4ccc(C)nc4)c3)[C@@H]1[C@@H](C)C(=O)[C@H](C)C[C@](C)(OC)[C@H](OC1O[C@H](C)C[C@H](N(C)C)[C@H]1O)[C@@H](C)C(=O)[C@@H](C)C(=O)O[C@@H]2CC (stereo partly shown) [XXXIII],–,–,–,–,–,–,–,–,–,–,–,–,–,"MIC, strain ID E ([6]; strain ID E, broth microdilution): 0.1; MIC, strain ID C ([7]; strain ID C, broth microdilution): 0.2; MIC, strain ID N ([9]; strain ID N, broth microdilution): =0.05; MIC, strain ID O ([10]; strain ID O, broth microdilution): =0.05; MIC, strain ID G ([11]; strain ID G, broth microdilution): =0.05; MIC, strain ID B ([14]; strain ID B, broth microdilution): > 50 µg/mL; MIC, strain ID P ([12]; strain ID P, broth microdilution, in µg/mL (unit assumed)): 1.56; MIC, strain ID M ([13]; strain ID M, broth microdilution): =0.05"
